Legend:
[1] = target: T1, sodium glucose co-transporter type 1 (SGLT1) (Homo sapiens, UniProt P13866); details: qualitative statement; see U.S. Pat. No. 9,200,025, Examples 6.39, 6.40; cited from earlier work
T1 sequence (P13866 1-664): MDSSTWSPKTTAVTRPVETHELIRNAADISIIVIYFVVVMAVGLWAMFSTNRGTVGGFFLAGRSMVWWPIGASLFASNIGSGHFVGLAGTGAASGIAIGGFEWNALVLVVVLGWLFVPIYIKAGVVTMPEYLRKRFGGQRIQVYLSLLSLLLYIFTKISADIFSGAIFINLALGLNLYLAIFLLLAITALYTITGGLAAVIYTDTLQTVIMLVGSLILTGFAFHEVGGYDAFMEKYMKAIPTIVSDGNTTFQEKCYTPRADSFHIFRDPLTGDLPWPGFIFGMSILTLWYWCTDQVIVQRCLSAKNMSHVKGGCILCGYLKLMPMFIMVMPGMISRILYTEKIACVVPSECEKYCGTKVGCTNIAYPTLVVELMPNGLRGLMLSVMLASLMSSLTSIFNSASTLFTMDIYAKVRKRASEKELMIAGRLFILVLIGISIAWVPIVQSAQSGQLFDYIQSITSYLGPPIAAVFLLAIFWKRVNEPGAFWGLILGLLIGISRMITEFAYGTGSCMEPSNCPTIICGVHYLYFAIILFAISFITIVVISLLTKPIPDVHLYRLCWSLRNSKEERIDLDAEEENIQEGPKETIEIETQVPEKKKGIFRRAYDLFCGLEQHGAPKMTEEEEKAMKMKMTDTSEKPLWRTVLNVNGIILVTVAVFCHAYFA

[2] = Polymorphism studies of the L-proline co-crystal: solid-form stability upon drying; assay type: physicochemical
Description: Significant further research directed at discovering useful and stable solid forms of the compound finally led to the discovery of a few crystalline forms of the free base, solvates, and co-crystals. […] Although polymorphism studies led to the identification of eleven different Raman spectroscopic classes of the co-crystal, three were dominated by amorphous material and most were unstable (i.e., lose their crystallinity or convert to other forms) upon drying. […] The suspension was filtered and the wet-cake was dried. […] (DSC peak 147° C.). The solid was used as seeds to prepare 0.7 g more Form II polymorph of the L-proline cocrystal in a similar fashion.

CS[C@H]1O[C@@H](c2ccc(C)c(Cc3ccc(CCCC(=O)NC(C)(C)C(=O)NCCN(C)C)cc3)c2)[C@H](O)[C@@H](O)[C@@H]1O [Compound I, N-(1-((2-(dimethylamino)ethyl)-amino)-2-methyl-1-oxopropan-2-yl)-4-(4-(2-methyl-5-((2S,3R,4R,5S,6R)-3,4,5-trihydroxy-6-(methylthio)tetrahydro-2H-pyran-2-yl)benzyl)phenyl)butanamide]
inhibition of sodium glucose co-transporter type 1 (SGLT1) [1]: potent inhibitor

CS[C@H]1O[C@@H](c2ccc(C)c(Cc3ccc(CCCC(=O)NC(C)(C)C(=O)NCCN(C)C)cc3)c2)[C@H](O)[C@@H](O)[C@@H]1O [Form I, N-(1-((2-(dimethylamino)ethyl)-amino)-2-methyl-1-oxopropan-2-yl)-4-(4-(2-methyl-5-((2S,3R,4R,5S,6R)-3,4,5-trihydroxy-6-(methylthio)tetrahydro-2H-pyran-2-yl)benzyl)phenyl)butanamide L-proline]
solid-form conversion upon drying ([2]; wet cake from ethanol, dried at 50° C.): converted to Form II upon drying

CS[C@H]1O[C@@H](c2ccc(C)c(Cc3ccc(CCCC(=O)NC(C)(C)C(=O)NCCN(C)C)cc3)c2)[C@H](O)[C@@H](O)[C@@H]1O [Form II, N-(1-((2-(dimethylamino)ethyl)-amino)-2-methyl-1-oxopropan-2-yl)-4-(4-(2-methyl-5-((2S,3R,4R,5S,6R)-3,4,5-trihydroxy-6-(methylthio)tetrahydro-2H-pyran-2-yl)benzyl)phenyl)butanamide L-proline]
solid-form stability (retains crystallinity / does not convert to other forms upon drying) ([2]; L-proline co-crystal forms, polymorphism studies): stable enough to be useful in pharmaceutical formulations
